Experimental findings from patent publication US20250163365A1, “LACTOBACILLUS REUTERI JH53 STRAIN HAVING EXCELLENT ORGANIC ACID RESISTANCE AND CONVERSION OF 1,3-PROPANDIOL FROM GLYCEROL, AND USE THEREOF” (ACTIVON CO., LTD., priority 2021, published 2025) are described below.

Values after ≈ are worked out from the molar mass of the structure shown. Where two headings read alike, the source gives them in different places.

Assay [1] relates to Lactobacillus reuteri CH53 strain. As to the kind of experiment: IC50 of Lactobacillus reuteri CH53 strain for metabolites (Example 1). The assay is classed as cell-based. The method, then:
The half-maximal inhibitory concentrations (IC50) of the Lactobacillus reuteri CH53 strain (KCTC13149BP) for major metabolites were measured. […] Thereafter, 1% (v/v) of the strain culture with OD600 nm=8.0 was inoculated into each broth and statically cultured at 37° C. for 24 hours, and the concentration at which the absorbance (OD600 nm) was half of the control was measured.

A further assay has as its system L. reuteri JH53. As to the kind of experiment: IC50 for organic acids, mutant strain (Example 3). The assay is classed as cell-based, Lactobacillus reuteri. Conditions: Limosilactobacillus reuteri, JH53, 24 h, pH 5.5, read-out: IC50 (g/L) L. reuteri JH53. The method, then:
(§1) In order to confirm that the Lactobacillus reuteri JH53 strain of the present invention has enhanced organic acid resistance, the half-maximal inhibitory concentrations (IC50) for organic acids were measured. […] Thereafter, 1% (v/v) of each strain culture with OD600 nm=8.0 was inoculated into each broth and statically cultured at 37° C. for 24 hours, and the concentration at which the absorbance (OD600 nm) was half of the control was measured.

Assay [2] relates to Lactobacillus reuteri CH53 strain. Conditions: lactic acid and acetic acid mixed in MRS plate medium, anaerobic, 37° C., 24 hours.
For assay [3] the test system is unchanged. As to the kind of experiment: Fed-batch culture of CH53 in medium supplemented with organic acid. The assay is classed as cell-based. Conditions: 10 g/L organic acid added, pH 5.5, fed-batch, 37° C., 100 rpm. On the procedure: Cell growth and 1,3-propanediol production were measured while the Lactobacillus reuteri CH53 strain was fed-batch cultured in a medium supplemented with an organic acid. 3 L of MRS broth containing 20 g/L of glycerol, 10 g/L of proteose peptone NO. […] During culture, glucose and glycerol were continuously fed so that they could be maintained at residual concentrations of 5 to 10 g/L. Thereafter, 1% (v/v) of the strain culture with OD600 nm=8.0 was inoculated into each broth, and the absorbance (OD600 nm) was measured while fed-batch culture was carried out under conditions of 37° C. and 100 rpm. 1 mL of each culture was centrifuged at 13,000 rpm for 5 minutes, and then the supernatant was filtered through a 0.22-μm filter and the concentration of 1,3-propanediol was measured using high-performance liquid chromatography. 1,3-Propanediol production was analyzed by high-performance liquid chromatography equipped with an ion exchange column ([…], Aminex HPX-87H, Bio-Rad) and a differential refraction detector (RID) using 0.25 mM H2SO4 as a mobile phase at a flow rate of 0.6 ml/min.

Another assay deals with L. reuteri CH53. As to the kind of experiment: IC50 for organic acids, parent strain (Example 3). Type of assay: cell-based, Lactobacillus reuteri. Conditions: Limosilactobacillus reuteri. The method, then:
as §1

The mark [4] stands for this setting: Limosilactobacillus reuteri, CH53STRAIN, CH53 strain, MRS broth pH 5.5, static culture 37° C. 24 hours, concentration at which OD600 nm was half of control, read-out: IC50.

In the case of `OCCCO` [1,3-propanediol], in assay [1] (CH53 strain, MRS broth pH 5.5, static culture 37° C. 24 hours, concentration at which OD600 nm was half of control), the “IC50” value is 79.8 mg/mL.
`CC(=O)O` [Acetic acid]: the IC50 in assay [1] (Limosilactobacillus reuteri, CH53STRAIN, 24 h, pH 5.5) was found to be 17.4 mg/mL; in the assay on L. reuteri JH53, 25.6 g/L (≈ 426 mM); in the assay on L. reuteri CH53 (CH53, 24 h, pH 5.5, read-out: IC50 (g/L) L. reuteri CH53) it was 20.6 g/L (≈ 343 mM). Further, the “Concentration at which CH53 strain could not grow” value in assay [2] is listed as ≥ 17.5 g/L. In assay [3], the “Effect on 1,3-propanediol production of CH53 strain” value is given as “reduced 1,3-propanediol production”. Moreover, the “Effect on cell growth of CH53 strain” value in assay [3] is given as “did not affect cell growth”.
For the compound `CCO` [Ethanol], the IC50 in assay [1] (setting [4]) came out at 29.5 mg/mL.
`CC(O)C(=O)O` (centres unmarked) [Lactic acid]: the IC50 in assay [1] (setting [4]) amounted to 27.9 mg/mL; with L. reuteri JH53, 36.7 g/L (≈ 407 mM); in the assay with L. reuteri CH53 (CH53, MRS broth pH 5.5, static culture 37° C. 24 hours, OD600 nm half of control, read-out: IC50 (g/L) L. reuteri CH53), 31.9 g/L (≈ 354 mM). Further, the “Concentration at which CH53 strain could not grow” value in assay [2] is reported as ≥ 35.0 g/L. The “Effect on 1,3-propanediol production of CH53 strain” value in assay [3] is given as “reduced 1,3-propanediol production”. Also, the “Effect on cell growth of CH53 strain” value in assay [3] is “did not affect cell growth”.
